The values that follow come from US6344505B1, “Mono- and bis-benzotriazolyldihydroxybiaryl UV absorbers” (Cytec Industries Inc., priority 1999, dated 2002).

The nature of series [1]: Thermal Gravimetric Analysis (TGA), temperature of 10 wt % loss (volatility). The format is physicochemical. To be noted: for TGA T-10%: Temperature at which 10% wt. loss is observed during TGA analysis; for TGAT=10% point: temperature at which 10 wt % loss occurs, TGA experiment. From the text: A reliable indication of the volatility of benzotriazole stabilizers is the temperatures at which 10 wt % loss occurs (TGAT=10%).

Series [2] can be described thus: UV absorption in toluene (λmax, molar absorptivity). Format: physicochemical. From the text: The high molar absorptivity of 3,3′-bis-(2H-benzotriazol-2-yl)-5,5′-di-tert-octyl-1,1′-biphenyl-2,2′-diol, ε310=25,600 (toluene) and ε353=28,300 (toluene) are indicative of high ultraviolet absorption efficiency of the benzotriazole stabilizers of the present invention.
The bis-benzotriazoles of the invention absorb UV light at longer wavelengths than their non-dimeric or alkylene bridged dimeric counterparts. For example, the dimeric 3,3′-bis-(2H-benzotriazol-2-yl)-5,5′-di-tert-octyl-1,1′-biphenyl-2,2′-diol of the present invention absorbs at λmax(toluene)=353 nm. In contrast, the monomeric 2-(2H-benzotriazol-2-yl)-4-tert-octyl-phenol absorbs at a much lower wavelength, at λmax(toluene)=346 nm. Furthermore, the methylene bridged 2,2′-methylenedi{6-(2-benzotriazolyl)-4-tert-octyl-phenol} has an absorption at λmax(toluene)=350 nm, also substantially shorter than that of the bis-benzotriazoles of the present invention.
PRODUCT A: 3,3′-bis-(2H-benzotriazol-2-yl)-5,5′-di-tert-octyl-1,1′-biphenyl-2,2′-diol (COMPOUND 1) (0.033 g), characterized by ^1H nuclear magnetic resonance spectroscopy (NMR), ultraviolet and mass spectroscopy; λmax(toluene): 310 and 353 nm; ε310=25,600; ε353=28,300; high resolution electron impact mass spectroscopy (HREI/MS): m/e=Found: 644.3815; Calculated: 644.3839; and
PRODUCT B: 3-(2H-Benzotriazol-2-yl)-5,5′-di-tert-octyl-1,1′-biphenyl-2,2′-diol (0.144 g), characterized by ^1H nuclear magnetic resonance spectroscopy (NMR), ultraviolet spectroscopy, and mass spectroscopy; λmax(toluene): 332 nm; ε332=15,400; high resolution electron impact mass spectroscopy (HREI/MS): m/e=Found: 527.3498; Calculated: 527.3512.

Series [3] in a line: Florida weathering (5° south, direct, ASTM G7-89) of acrylic melamine coating. Particulars: Table 11. Here is the method: COMPOUND 1 was formulated in a clear acrylic melamine coatings which were applied to aluminum panels for accelerated weathering testing as follows. COMPOUND 1 (2% based on total resin solids) was pre-dissolved in xylenes, alone and in combination with Sanduvor® 3058 HALS (0.5% or 1.0% based on total resin solids), and added to the clear acrylic melamine formulation given in Table 6. A formulation containing Tinuvin® 328 (2% based on total resin solids) was also prepared for comparison purposes. Unpolished aluminum panels, measuring 4″×12″, obtained from ACT Laboratories, Inc. (Hillsdale, Mich.) were coated with the clear coat formulation of Table 6. The draw-down technique, using WC-52 Wire-Cators™ (Leneta co., Ho-Ho-Kus, N.J.), was used to apply the clear coats to the panels. Coatings 2 mil thick were obtained. The clear coats were allowed to flash for 10 min. at ambient temperature and cured for 30 min. at 135° C.
The coatings of Example 13 were weathered in Miami, Fla. The testing was performed in accordance with ASTM G7-89 at a tilt angle of […] from the horizontal facing south with specimens mounted unbacked.

Series [4] can be described thus: Solubility in xylene (compatibility). Format: physicochemical.

Several values for one entry are separate records, joined by “and”; a condition that tells them apart may be missing. Identical values can stand only once. Like-named read-outs stand apart in the source and are kept apart here.

The term melting point denotes the temperature, or range, at which the solid turns liquid.

Regarding `CC(C)(c1ccccc1)c1cc(-n2nc3ccccc3n2)c(O)c(C(C)(C)c2ccccc2)c1` [Tinuvin ®-234, 2-(2H-Benzotriazol-2yl)-4,6-bis (α,α-dimethylbenzyl) phenol], in series [1], the “TGA T-10%” value turned out to be 312 °C.

On to `CC(C)(C)CC(C)(C)c1ccc(O)c(-n2nc3ccccc3n2)c1` [UV-5411, 2-(2H-benzotriazol-2-yl)-4-tert-octyl-phenol], for which, in series [1], the “TGA T-10%” value was determined as 245 °C and the “TGAT=10% point” value is 247 °C. For the same compound, the “λmax(toluene)” value in series [2] was found to be 346 nm.

Compound `CC(C)(C)c1cc(-c2cc(C(C)(C)C)cc(-n3nc4ccccc4n3)c2O)c(O)c(-n2nc3ccccc3n2)c1` [COMPOUND 2, 3,3′-bis-(2H-benzotriazol-2-yl)-5,5′-di-tert-butyl-1,1′-biphenyl-2,2′-diol] displayed a melting point of 234 °C.

Take `CC(C)(C)CC(C)(C)c1cc(Cc2cc(C(C)(C)CC(C)(C)C)cc(-n3nc4ccccc4n3)c2O)c(O)c(-n2nc3ccccc3n2)c1` [LA-31 ®, 2,2′-Methylenedi [Bis-2-benzotriazolyl)-4-tert-octylphenol]: the “TGA T-10%” value in series [1] came to 380 °C.

With `CCC(C)(C)c1cc(-n2nc3ccccc3n2)c(O)c(C(C)(C)CC)c1` [Tinuvin ® 328, reference compound], the “efficiency in reducing total color change (delta E) relative to the unstabilized coating” value in series [3] is “comparable efficiency”.

Consider `CC(C)(C)CC(C)(C)c1cc(Cc2cc(C(C)(C)CC(C)(C)C)cc(-n3nc4ccccc4n3)c2O)c(O)c(-n2nc3ccccc3n2)c1` [MIXXIM BB/100®, 2,2′-methylenedi{6-(2-benzotriazolyl)-4-tert-octyl-phenol}, reference compound], for which the “TGAT=10% point” value in series [1] was 370 °C. Also, the solubility in xylene in series [4] worked out at 2.5 gram/100 ml. Also, the “λmax(toluene)” value in series [2] is recorded as 350 nm.

As for `Cc1ccc(O)c(-n2nc3ccccc3n2)c1` [Tinuvin P ™, 2-(2H-benzotriazol-2-yl)-4-methyl-phenol], the “TGA T-10%” value in series [1] was 205 °C.

Regarding `Oc1c(-c2cccc(-n3nc4ccccc4n3)c2O)cccc1-n1nc2ccccc2n1` [COMPOUND 5, 3,3′-bis-(2H-benzotriazol-2-yl)-1,1′-biphenyl-2,2′-diol], the “TGA T-10%” value in series [1] was 383 °C.

Compound `CC(C)(C)CC(C)(C)c1cc(-c2cc(C(C)(C)CC(C)(C)C)cc(-n3nc4ccccc4n3)c2O)c(O)c(-n2nc3ccccc3n2)c1` [COMPOUND 1, 3,3′-bis-(2H-benzotriazol-2-yl)-5,5′-di-tert-octyl-1,1′-biphenyl-2,2′-diol] yielded a melting point of 209 to 211 °C. Also, in series [1], the “TGA T-10%” value amounted to 381 °C and the “TGAT=10% point” value came out at 384 °C. In series [4], the solubility in xylene was 6.0 gram/100 ml. Besides, in series [2], the “λmax(toluene)” value was 310 nm and 353 nm. Besides, the “molar absorptivity ε310” value in series [2] (310 nm, in M-1 cm-1 (unit assumed)) is 25,600. For the same compound, the “molar absorptivity ε353” value in series [2] (353 nm, in M-1 cm-1 (unit assumed)) is on record as 28,300. In addition, the “λmax(toluene)” value in series [2] (listed as 3,3′-bis-(2H-benzotriazol-2-yl)-5,5′-di-tert-octyl-1,1′-biphenyl-2,2′-diol) is on record as 353 nm. Further, the “efficiency in reducing total color change (delta E) relative to the unstabilized coating” value in series [3] is “comparable efficiency”.

Turning to `CC(C)(c1ccccc1)c1cc(-c2cc(C(C)(C)c3ccccc3)cc(-n3nc4ccccc4n3)c2O)c(O)c(-n2nc3ccccc3n2)c1` [COMPOUND 3, 3,3′-bis-(2H-benzotriazol-2-yl)-5,5′-di-cumyl-1,1′-biphenyl-2,2′-diol], the “TGA T-10%” value in series [1] was 377 °C.

Consider `CC(C)(C)CC(C)(C)c1ccc(O)c(-c2cc(C(C)(C)CC(C)(C)C)cc(-n3nc4ccccc4n3)c2O)c1` [PRODUCT B, 3-(2H-Benzotriazol-2-yl)-5,5′-di-tert-octyl-1,1′-biphenyl-2,2′-diol], for which, in series [2], the “λmax(toluene)” value worked out at 332 nm. Moreover, in series [2] (332 nm), the “molar absorptivity ε332” value was 15,400.
